Here are results for 14 molecules from patent US9814704B2, “Substituted pyrrolo[2,3-b]pyridines as MLK inhibitors” (The University of Rochester, priority 2008, dated 2017).

Read-outs that look alike come from different tables or passages of the source. Some results are limits rather than exact numbers.

For this test, the target named is MLK3 (Homo sapiens (Human), UniProt Q16584). Nature of the test: Radiometric Filter Plate MLK3 Assay. It counts as biochemical. The note with it: read-out: MK3 IC50. The protocol:
Radiometric Filter Plate MLK3 Assay
After a twenty minute incubation, the reactions were washed through filter plates and read on a scintillation counter. Results are shown in Table 4 below, in which +++ indicates ≦0.1 μM, ++ indicates >0.1 μM and ≦1 μM, and + indicates >1 μM.

Setting [1] is: 200 ng (130 nM) MLK3, 1 μM inactive MKK7b, 2 μM cold ATP (Km), 33P ATP, twenty minute incubation.

Sequence of MLK3 (Q16584 whole entry): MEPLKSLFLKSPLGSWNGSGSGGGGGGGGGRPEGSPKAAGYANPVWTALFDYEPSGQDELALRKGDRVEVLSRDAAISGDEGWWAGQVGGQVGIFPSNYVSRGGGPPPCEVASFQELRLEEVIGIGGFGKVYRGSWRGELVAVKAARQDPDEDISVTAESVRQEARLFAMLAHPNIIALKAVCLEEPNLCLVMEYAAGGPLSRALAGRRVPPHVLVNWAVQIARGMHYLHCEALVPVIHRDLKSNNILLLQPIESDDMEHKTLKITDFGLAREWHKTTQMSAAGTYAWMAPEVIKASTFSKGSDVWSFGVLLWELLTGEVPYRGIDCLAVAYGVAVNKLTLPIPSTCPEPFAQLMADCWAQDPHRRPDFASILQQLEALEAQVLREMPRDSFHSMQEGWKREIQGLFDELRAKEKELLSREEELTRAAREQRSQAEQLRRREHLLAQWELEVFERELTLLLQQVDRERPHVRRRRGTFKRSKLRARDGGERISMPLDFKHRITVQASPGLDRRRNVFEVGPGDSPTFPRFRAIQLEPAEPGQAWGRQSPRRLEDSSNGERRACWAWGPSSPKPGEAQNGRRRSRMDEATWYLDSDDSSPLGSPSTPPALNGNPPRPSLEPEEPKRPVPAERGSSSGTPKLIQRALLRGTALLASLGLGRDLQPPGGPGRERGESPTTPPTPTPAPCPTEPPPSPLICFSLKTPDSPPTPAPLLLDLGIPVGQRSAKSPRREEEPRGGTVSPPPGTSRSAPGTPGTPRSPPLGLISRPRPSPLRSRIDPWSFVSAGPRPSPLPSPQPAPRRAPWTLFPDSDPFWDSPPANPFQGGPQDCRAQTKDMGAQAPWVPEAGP

With `O=c1[nH]c2ncc(-c3cc(F)c(O)c(F)c3)nc2n1-c1ccc2[nH]ccc2c1` [Example 59, 6-(3,5-difluoro-4-hydroxyphenyl)-1-(1H-indol-5-yl)-1H-imidazo[4,5-b]pyrazin-2(3H)-one], under setting [1], the IC50 (as a rule, the concentration at which inhibition is half-maximal) is under 0.1 µM.
Same read-out and setting: next, `COc1cc(-c2cnc3c(c2)C(=Cc2cccc(C#N)c2)C(=O)N3)cc(OC)c1OC` [Example 134, 3-[2-oxo-5-(3,4,5-trimethoxy-phenyl)-1,2-dihydro-pyrrolo[2,3-b]pyridin-3-ylidenemethyl]-benzonitrile]: over 1 µM; `CN(C)Cc1ccc(-c2cnc3[nH]cc(-c4ccc5[nH]ccc5c4)c3c2)cc1` [Example 33, 1-(4-(3-(1H-indol-5-yl)-1H-pyrrolo[2,3-b]pyridin-5-yl)phenyl)-N,N-dimethylmethanamine]: under 0.1 µM.
On the same count and under the same terms, the figure for `CC(C)(C)OC(=O)N1CCN(C(=O)c2cccc(-c3cnc4[nH]cc(-c5ccc(C(N)=O)cc5)c4c3)c2)CC1` [Example 151, 4-{3-[3-(4-carbamoyl-phenyl)-1H-pyrrolo[2,3-b]pyridin-5-yl]-benzoyl}-piperazine-1-carboxylic acid tert-butyl ester] is under 0.1 µM.
As for `CN1CCN(Cc2ccc(-c3cnc4[nH]cc(-c5ccc(C(N)=O)cc5)c4c3)cc2)CC1` [Example 155, 4-{5-[4-(4-methyl-piperazin-1-ylmethyl)-phenyl]-1H-pyrrolo[2,3-b]pyridin-3-yl}-benzamide], the IC50 was 0.1 to 1 µM.
Consider `O=c1[nH]c2ncc(-c3ccc(O)cc3)nc2n1-c1ccc2cn[nH]c2c1` [Example 92, 6-(4-hydroxyphenyl)-1-(1H-indazol-6-yl)-1H-imidazo[4,5-b]pyrazin-2(3H)-one], for which the IC50 under setting [1] was over 1 µM.
Still for that read-out and setting: the figure for `CN1CCN(Cc2ccc(-c3c[nH]c4ncc(-c5ccc(C(N)=O)cc5)cc34)cc2)CC1` [Example 162, 4-{3-[4-(4-methyl-piperazin-1-ylmethyl)-phenyl]-1H-pyrrolo[2,3-b]pyridin-5-yl}-benzamide] is under 0.1 µM.
`O=c1[nH]c2ncc(-c3ccc(O)cc3)nc2n1C1CCCC1` [Example 76, 1-cyclopentyl-6-(4-hydroxyphenyl)-1H-imidazo[4,5-b]pyrazin-2(3H)-one]: the half-inhibitory concentration (IC50) is 0.1 to 1 µM.
As for `CC(=O)N1CCN(C(=O)c2ccc(-c3cnc4[nH]cc(-c5ccc6[nH]ccc6c5)c4c3)cc2)CC1` [Example 146, 1-(4-{4-[3-(1H-indol-5-yl)-1H-pyrrolo[2,3-b]pyridin-5-yl]-benzoyl}-piperazin-1-yl)-ethanone], the IC50 under setting [1] was under 0.1 µM.
Same read-out and setting: next, `COc1cc(-c2cnc3c(c2)/C(=C\c2ccncc2)C(=O)N3)cc(OC)c1OC` [Example 129, (E)- and (Z)-3-pyridin-4-ylmethylene-5-(3,4,5-trimethoxy-phenyl)-1,3-dihydro-pyrrolo[2,3-b]pyridin-2-one]: over 1 µM.
Same read-out and setting: the figure for `CN1CCN(c2cc(-c3cnc4[nH]c(=O)n(-c5ccc6[nH]ccc6c5)c4n3)ccn2)CC1` [Example 66, 1-(1H-indol-5-yl)-6-(2-(4-methylpiperazin-1-yl)pyridin-4-yl)-1H-imidazo[4,5-b]pyrazin-2(3H)-one] is over 1 µM; for `Nc1ccc(-c2cnc3[nH]c(=O)n(C4CCCC4)c3n2)cn1` [Example 117, 6-(6-aminopyridin-3-yl)-1-cyclopentyl-1H-imidazo[4,5-b]pyrazin-2(3H)-one] it is over 1 µM.
On to `O=c1[nH]c2ncc(-c3ccc4c(c3)OCCO4)nc2n1-c1ccc2[nH]ccc2c1` [Example 63, 6-(2,3-dihydrobenzo[b][1,4]dioxin-6-yl)-1-(1H-indol-5-yl)-1H-imidazo[4,5-b]pyrazin-2(3H)-one], for which the half-maximal inhibitory concentration (IC50) was 0.1 to 1 µM.
Same read-out and setting: next, `O=c1[nH]c2ncc(-c3cc(F)c(O)cc3F)nc2n1-c1ccc2[nH]ccc2c1` [Example 58, 6-(2,5-difluoro-4-hydroxyphenyl)-1-(1H-indol-5-yl)-1H-imidazo[4,5-b]pyrazin-2(3H)-one]: 0.1 to 1 µM.
